Where two headings read alike, the source gives them in different places. *1 amine or outer side, *2 acyl side, *3 side chain or, on linkers, in order; H or OH if unused. Where a SMILES comes first, the peptide text is derived from it. Bridges are numbered along the chain shown (N, C = ends). [ ]: non-standard residue; d: D form. The star is where a group is joined. X25 = O=C([C@H](Cc1ccc(C(F)(F)F)cc1)N(CCC(F)(F)F)[*:1])[*:2]; hPhe(3-Cl-4-CF3) = N[C@@H](CCc1ccc(C(F)(F)F)c(Cl)c1)C(=O)O; NPrPhe(4-CF3) = CCCN[C@@H](Cc1ccc(C(F)(F)F)cc1)C(=O)O; NEtPhe(4-Me) = CCN[C@@H](Cc1ccc(C)cc1)C(=O)O; NMeAbu(4,4,4-F3) = CN[C@@H](CC(F)(F)F)C(=O)O; NMeGly(cPent) = CN[C@H](C(=O)O)C1CCCC1; Pro(4,4-F2) = O=C(O)[C@@H]1CC(F)(F)CN1; Hyp = O=C(O)[C@@H]1C[C@@H](O)CN1; NMeD = CN[C@@H](CC(=O)O)C(=O)O; NMeL = CN[C@@H](CC(C)C)C(=O)O; Morpholide = C1CN(*)CCO1; NMeA = CN[C@@H](C)C(=O)O; NMeAib = CNC(C)(C)C(=O)O; Nle = CCCC[C@H](N)C(=O)O; Piperidide = C1CCN(*)CC1; Ac5c = NC1(C(=O)O)CCCC1; Aze = O=C(O)[C@@H]1CCN1; Sar = CNCC(=O)O
Assays:
[1] = molecular target: GDP-bound HRAS wild-type protein (Homo sapiens, UniProt P01112); assay: Binding to HRAS by surface plasmon resonance (SPR), Single Cycle Kinetics; conditions: SPR, GDP-bound HRAS wild-type protein vs GDP-bound KRAS wild-type protein
[2] = molecular target: GDP-bound KRAS wild-type protein (Homo sapiens, UniProt P01116); assay: Binding to KRAS by surface plasmon resonance (SPR), Single Cycle Kinetics; conditions: GDP-bound KRAS wild-type protein, read-out: KRAS KD
[3] = molecular target: GDP-bound NRAS wild-type protein (Homo sapiens, UniProt P01111); assay: Binding to NRAS by surface plasmon resonance (SPR), Single Cycle Kinetics; conditions: SPR, GDP-bound NRAS wild-type protein vs GDP-bound KRAS wild-type protein
[4] = SPR Single Cycle Kinetics, 1:1 binding model
[5] = SPR, Single Cycle Kinetics, 1:1 binding model

GDP-bound KRAS wild-type protein, sequence (P01116 whole entry): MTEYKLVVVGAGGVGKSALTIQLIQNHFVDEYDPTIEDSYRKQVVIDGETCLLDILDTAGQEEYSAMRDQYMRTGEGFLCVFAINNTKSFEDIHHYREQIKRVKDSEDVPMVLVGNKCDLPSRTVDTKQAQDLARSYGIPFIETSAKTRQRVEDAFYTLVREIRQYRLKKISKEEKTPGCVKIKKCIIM
GDP-bound NRAS wild-type protein, sequence (P01111 whole entry): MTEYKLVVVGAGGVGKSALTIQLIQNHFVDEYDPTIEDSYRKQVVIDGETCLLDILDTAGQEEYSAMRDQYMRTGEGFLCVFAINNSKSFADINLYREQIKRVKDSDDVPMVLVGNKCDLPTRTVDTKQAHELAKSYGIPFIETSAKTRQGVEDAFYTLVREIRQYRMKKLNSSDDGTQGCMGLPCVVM
GDP-bound HRAS wild-type protein, sequence (P01112 whole entry): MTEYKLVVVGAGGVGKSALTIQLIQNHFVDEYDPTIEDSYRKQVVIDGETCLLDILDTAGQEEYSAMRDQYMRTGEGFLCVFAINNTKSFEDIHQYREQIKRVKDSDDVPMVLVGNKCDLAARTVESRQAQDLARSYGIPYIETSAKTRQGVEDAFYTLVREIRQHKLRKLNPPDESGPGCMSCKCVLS

| Structure (SMILES) | Kd [2, 4] [nM] | Kd ([2]; SPR, Single Cycle Kinetics) [nM] | HRAS/KRAS (ratio of KD value for HRAS to KD value for KRAS) [1] | NRAS/KRAS (ratio of KD value for NRAS to KD value for KRAS) [3] | further results |
| --- | --- | --- | --- | --- | --- |
| CC[C@H](C)[C@@H]1NC(=O)[C@H](CC(C)C)N(C)C(=O)C[C@@H](C(=O)N2CCOCC2)N(C)C(=O)[C@H](CC(F)(F)F)N(C)C(=O)C2(CCCC2)NC(=O)[C@@H]2CCCN2C(=O)[C@H](CCc2cc(F)c(C(F)(F)F)c(F)c2)NC(=O)CN(C)C(=O)[C@H](Cc2ccc(C(F)(F)F)cc2)N2CCCCC[C@@H](C2=O)N(C)C(=O)CN(C)C1=O [PP0506] | 25 | – | – | – | HRAS/KRAS (ratio of KD value with respect to HRAS to KD value with respect to KRAS) [1]: B (a compound having 3 or more and less than 10 is denoted as B); NRAS/KRAS (ratio of KD value with respect to NRAS to KD value with respect to KRAS) [3]: B (a compound having 3 or more and less than 10 is denoted as B) |
| CC[C@H](C)[C@@H]1NC(=O)[C@H](CC(F)(F)F)N(C)C(=O)C[C@@H](C(=O)N2CCOCC2)N(C)C(=O)[C@H](C2CCCC2)N(C)C(=O)C2(CCCC2)NC(=O)[C@@H]2CCCN2C(=O)[C@H](CCc2ccc(C(F)(F)F)c(Cl)c2)NC(=O)CN(C)C(=O)[C@H](Cc2ccc(C)cc2)N(CC)C(=O)CN(C)C(=O)CN(C)C1=O [PP0032] ([NMeAbu(4,4,4-F3)]I[Sar][Sar][NEtPhe(4-Me)][Sar][hPhe(3-Cl-4-CF3)]P[Ac5c][NMeGly(cPent)][NMeD]-Morpholide; lactam N-11) | 0.37 | – | C (A compound having a KD ratio of 0.1 or more and less than 3 is denoted as C) | C (A compound having a KD ratio of 0.1 or more and less than 3 is denoted as C) | – |
| CCCC[C@@H]1NC(=O)[C@H](CCc2ccc(C(F)(F)F)c(Cl)c2)NC(=O)CN(C)C(=O)[C@H](Cc2ccc(C)cc2)N(CC)C(=O)[C@@H]2CCN2C(=O)[C@H](C)N(C)C(=O)[C@H]([C@@H](C)CC)NC(=O)[C@H](CC(C)C)N(C)C(=O)C[C@@H](C(=O)N2CCCCC2)N(C)C(=O)[C@H](CC(C)C)NC(=O)C(C)(C)N(C)C1=O [PP0048] ([NMeL]I[NMeA][Aze][NEtPhe(4-Me)][Sar][hPhe(3-Cl-4-CF3)][Nle][NMeAib]L[NMeD]-Piperidide; lactam N-11) | 63 | – | C (A compound having a KD ratio of 0.1 or more and less than 3 is denoted as C) | C (A compound having a KD ratio of 0.1 or more and less than 3 is denoted as C) | – |
| CCO[C@@H]1C[C@H]2C(=O)NC3(CC(C)(C)C3)C(=O)N(C)[C@@H](C(CC)CC)C(=O)N(C)[C@H](C(=O)N(C)C)CC(=O)N(C)[C@@H](CC3CCC3)C(=O)N[C@@H]([C@@H](C)CC)C(=O)N(C)CC(=O)N(C)[C@H]3C/C=C\CCN(C3=O)[C@@H](Cc3ccc(C)cc3)C(=O)N(C)CC(=O)N[C@@H](CCc3ccc(Cl)c(Cl)c3)C(=O)N2C1 [PP2120] | – | 0.91 | A (a compound having 10 or more and less than 20 is denoted as A) | AA (a compound having 20 or more is denoted as AA) | – |
| CCO[C@@H]1C[C@H]2C(=O)NC3(CCC3)C(=O)N(C)[C@@H](C3CCCC3)C(=O)N(C)[C@H](C(=O)N(C)CCOC)CC(=O)N(C)[C@@H](CC(C)C)C(=O)N[C@@H]([C@@H](C)CC)C(=O)N(C)CC(=O)N(C)[C@H]3C/C=C\CCN(C3=O)[C@@H](Cc3ccc(C(F)(F)F)cc3)C(=O)N(C)CC(=O)N[C@@H](CCc3ccc(C(F)(F)F)c(OC)c3)C(=O)N2C1 [PP1324, (2S,8S,12R,14S,20S,23S,27S,30S,36S,38Z)-20-cyclopentyl-12-ethoxy-27-isobutyl-N-(2-methoxyethyl)-8-[2-[3-methoxy-4-(trifluoromethyl)phenyl]ethyl]-N,4,19,22,26,32,35-heptamethyl-30-[(1S)-1-methylpropyl]-3,6,9,15,18,21,25,28,31,34,42-undecaoxo-2-[[4-(trifluoromethyl)phenyl]methyl]spiro[1,4,7,10,16,19,22,26,29,32,35-undecazatricyclo[34.5.1.0^10,14]dotetracont-38-ene-17,1′-cyclobutane]-23-carboxamide] | – | – | – | – | HRAS/KRAS (ratio of KD value for HRAS to KD value for KRAS) ([1]; KD ratio class): A (a compound having 10 or more and less than 20 is denoted as A); Kd [2, 5]: 0.093 nM; NRAS/KRAS (ratio of KD value for NRAS to KD value for KRAS) ([3]; KD ratio class): A (a compound having 10 or more and less than 20 is denoted as A) |
| CCO[C@@H]1C[C@H]2C(=O)NC3(CCC3)C(=O)N(C)[C@@H](C3CCCC3)C(=O)N(C)[C@H](C(=O)N(C)CCOC)CC(=O)N(C)[C@@H](CC(F)F)C(=O)N[C@@H]([C@@H](C)CC)C(=O)N(C)CC(=O)N(C)[C@H]3C/C=C\CCN(C3=O)[C@@H](Cc3ccc(C(F)(F)F)cc3)C(=O)N(C)CC(=O)N[C@@H](CCc3cc(F)c(C(F)(F)F)c(F)c3)C(=O)N2C1 [PP1320] | – | – | – | – | HRAS/KRAS (ratio of KD value for HRAS to KD value for KRAS) ([1]; KD ratio class): A (a compound having 10 or more and less than 20 is denoted as A); Kd [2, 5]: 0.057 nM; NRAS/KRAS (ratio of KD value for NRAS to KD value for KRAS) ([3]; KD ratio class): A (a compound having 10 or more and less than 20 is denoted as A) |

Second part, led by results:

| Kd [2, 4] [nM] | Kd ([2]; SPR, Single Cycle Kinetics) [nM] | Structure (SMILES) | HRAS/KRAS (ratio of KD value for HRAS to KD value for KRAS) [1] | NRAS/KRAS (ratio of KD value for NRAS to KD value for KRAS) [3] | further results |
| --- | --- | --- | --- | --- | --- |
| 0.19 | – | CC[C@H](C)[C@@H]1NC(=O)[C@H](CC(C)C)N(C)C(=O)C[C@@H](C(=O)N2CCOCC2)N(C)C(=O)[C@H](C2CCCC2)N(C)C(=O)C2(CCCC2)NC(=O)[C@@H]2CCCN2C(=O)[C@H](CCc2ccc(C(F)(F)F)c(Cl)c2)NC(=O)CN(C)C(=O)[C@H](Cc2ccc(C(F)(F)F)cc2)N(CCC(F)(F)F)C(=O)[C@@H]2CCN2C(=O)[C@H](C)N(C)C1=O [PP0117] ([NMeL]I[NMeA][Aze][X25][Sar][hPhe(3-Cl-4-CF3)]P[Ac5c][NMeGly(cPent)][NMeD]-Morpholide; lactam N-11) | B (a compound having 3 or more and less than 10 is denoted as B) | B (a compound having 3 or more and less than 10 is denoted as B) | – |
| 0.47 | – | CCCN1C(=O)[C@@H]2CCN2C(=O)CN(C)C(=O)[C@H]([C@@H](C)CC)NC(=O)[C@H](CC(C)C)N(C)C(=O)C[C@@H](C(=O)N2CCOCC2)NC(=O)[C@H](C2CCCC2)N(C)C(=O)C2(CCCC2)NC(=O)[C@@H]2C[C@@H](OCC)CN2C(=O)[C@H](CCc2ccc(C(F)(F)F)c(Cl)c2)NC(=O)CN(C)C(=O)[C@@H]1Cc1ccc(C(F)(F)F)cc1 [PP0353] ([NMeL]I[Sar][Aze][NPrPhe(4-CF3)][Sar][hPhe(3-Cl-4-CF3)][Hyp](Et)[Ac5c][NMeGly(cPent)]D-Morpholide; lactam N-11) | B (a compound having 3 or more and less than 10 is denoted as B) | C (A compound having a KD ratio of 0.1 or more and less than 3 is denoted as C) | – |
| – | 0.063 | CC[C@H](C)[C@@H]1NC(=O)[C@H](CC(C)C)N(C)C(=O)C[C@@H](C(=O)N2CCOCC2)N(C)C(=O)[C@H](C2CCCC2)N(C)C(=O)C2(CCC2)NC(=O)[C@@H]2[C@@H](OCC3CC3)CCN2C(=O)[C@H](CCc2cc(F)c(C(F)(F)F)c(F)c2)NC(=O)CN(C)C(=O)[C@H](Cc2ccc(C(F)(F)F)cc2)N2CCCC[C@@H](C2=O)N(C)C(=O)CN(C)C1=O [PP1072] | B (a compound having 3 or more and less than 10 is denoted as B) | B (a compound having 3 or more and less than 10 is denoted as B) | – |
| 0.15 | – | CCCN1C(=O)[C@@H]2CCN2C(=O)[C@H](C)N(C)C(=O)[C@H]([C@@H](C)CC)NC(=O)[C@H](CC(C)C)N(C)C(=O)C[C@@H](C(=O)N2CCOCC2)N(C)C(=O)[C@H](C2CCCC2)N(C)C(=O)C2(CCCC2)NC(=O)[C@@H]2CC(F)(F)CN2C(=O)[C@H](CCc2ccc(C(F)(F)F)c(Cl)c2)NC(=O)CN(C)C(=O)[C@@H]1Cc1ccc(C(F)(F)F)cc1 [PP0196] ([NMeL]I[NMeA][Aze][NPrPhe(4-CF3)][Sar][hPhe(3-Cl-4-CF3)][Pro(4,4-F2)][Ac5c][NMeGly(cPent)][NMeD]-Morpholide; lactam N-11) | C (A compound having a KD ratio of 0.1 or more and less than 3 is denoted as C) | C (A compound having a KD ratio of 0.1 or more and less than 3 is denoted as C) | – |
| – | 0.75 | CCO[C@@H]1C[C@H]2C(=O)NC3(CC(C)(C)C3)C(=O)N(C)[C@@H](C(CC)CC)C(=O)N(C)[C@H](C(=O)N3CCCC3)CC(=O)N(C)[C@@H](CC)C(=O)N[C@@H]([C@@H](C)CC)C(=O)N(C)CC(=O)N(C)[C@H]3C/C=C\CCN(C3=O)[C@@H](Cc3ccc(C)cc3)C(=O)N(C)CC(=O)N[C@@H](CCc3ccc(C(F)(F)F)c(OC)c3)C(=O)N2C1 [PP2171] | A (a compound having 10 or more and less than 20 is denoted as A) | A (a compound having 10 or more and less than 20 is denoted as A) | – |
| – | 3.6 | CCC[C@H]1C(=O)N[C@@H]([C@@H](C)CC)C(=O)N2CCC[C@H]2C(=O)N(C)[C@H]2C/C=C\CCN(C2=O)[C@@H](CC2CCCCC2)C(=O)N(C)CC(=O)N[C@@H](CCc2ccc(C(F)(F)F)c(OC)c2)C(=O)N2C[C@H](OCC)C[C@H]2C(=O)N(C)C2(CCC2)C(=O)N(C)[C@@H](C(CC)CC)C(=O)N(C)[C@H](C(=O)N(C)C)CC(=O)N1C [PP2341] | A (a compound having 10 or more and less than 20 is denoted as A) | A (a compound having 10 or more and less than 20 is denoted as A) | – |
